“Also recorded” adds a separate entry of the source. Each block holds one molecule with its values, some of them ahead of it.
Key:
[1] = test system: apolipoprotein B100 of LDL; assay: Production of 3-chlorotyrosine in LDL modified by different oxidation systems; format: biochemical, human; details: 37° C.; for 3-chlorotyrosine content of LDL exposed to oxidation system: LDL 512 μg protein/ml, pH 7.4, 60 min or 24 h, FIG. 2, result in words
Method: FIG. 2 show production of 3-chlorotyrosine in LDL modified by different oxidation systems. LDL (512 μg protein/ml) was incubated at 37° C. in phosphate buffered saline (10 mM sodium phosphate, 150 mM NaCl, pH 7.4) alone (Control) or with the indicated oxidation system. The complete myeloperoxidase-H2 O2 --Cl^- system consisted of 20 nM myeloperoxidase and 100 μM H2 O2. HOCl was used at 100 μM. Horseradish peroxidase (10 μg/ml and lactoperoxidase (10 μg/ml) were used with 100 μM H2 O2. LDL was exposed to myeloperoxidase, HOCl, horseradish peroxidase and lactoperoxidase for 60 min.
All other oxidation reactions were carried out for 24 h. Final concentrations of oxidants were: peroxynitrite, 100 μM; CuSO4, 10 μM; CuSO4 and H2 O2, 100 μM and 2 mM, respectively; FeSO4, 10 μM; hemin, 10 μM; and glucose, 100 mM. LDL oxidation by lipoxygenase was performed in 50 mM borate, 150 mM NaCl supplemented with phospholipase A2 as previously described (45).
Reaction products were delipidated, acid hydrolyzed, and the 3-chlorotyrosine content of the amino acid hydrolysate determined by stable isotope dilution GC-MS analysis. Values are the mean of duplicate determinations. […] HRP, horseradish peroxidase; MPO, myeloperoxidase-peroxidase.
The complete system consisted of Buffer B (20 mM Na[PO4 ], pH 7.0, 100 μM DTPA) supplemented with LDL (512 μg protein/ml), myeloperoxidase (MPO; 40 nM), H2 O2 (100 μM) and Cl^- (as NaCl; 100 mM). After a 1 h incubation at 37° C., the 3-chlorotyrosine content was determined by stable isotope dilution GC-MS as described under "Methods." The limit of detection of the assay was <0.1 umol 3-chlorotyrosine per mol L-tyrosine. Values are the mean of duplicate determinations.

Human neutrophils = assay: Formation of 3-chlorotyrosine in LDL exposed to activated human phagocytes; format: cell-based; details: FIG. 1
Method: Human neutrophils (1×10^6 /ml) were incubated at 37° C. in Hank's Balanced Salt Solution supplemented with DTPA (100 μM) and LDL (512 μg protein/ml). Neutrophils were activated with phorbol ester (PMA; 200 nM) and maintained in suspensions by intermittent inversion (Complete neutrophil system).
Following a 60 min incubation, neutrophils were removed by centrifugation. The supernatant was delipidated and dialyzed, ^13 C-labeled internal standards were added, and the samples were then subjected to acid hydrolysis. The content of L-tyrosine and 3-chlorotyrosine in acid hydrolysates were determined by stable isotope dilution GC-MS analysis as described under "Method", below.
Additions or deletions to the complete system were as indicated. The final concentrations of additions were:
3-Chlorotyrosine content of LDL is normalized to the content of the precursor amino acid L-tyrosine. Values are the mean of duplicate determinations.
(§1) General Procedures--All glassware was rendered chlorine-demand free (<3% consumption of 1 mM HOCl in a 10 min incubation at 37° C. within a gas-tight vial as monitored by the oxidation of iodide to triiodide) prior to use (12,25,27). […] Myeloperoxidase (donor: hydrogen peroxide, oxidoreductase, EC 1.11.1.7) was isolated (final A430 /A280 ratio of 0.6) as previously described (28,29). Enzyme concentration was determined spectrophotometrically ε430 =[…] cm^-1; ref. 30). Human neutrophils were isolated by buoyant density centrifugation (31). Medium A (Hank's balanced salt solution (magnesium-, calcium-, phenol- and bicarbonate-free; Gibco-BRL, Gaithersburg, Md.), pH 7.2, supplemented with 100 μM diethylenetriamine pentaacetic acid (DTPA) was used for neutrophil isolation and experiments.

myeloperoxidase = target: T1, myeloperoxidase (Homo sapiens, UniProt P05164); assay: Chlorination of apolipoprotein B100 of LDL by the myeloperoxidase-H2O2-Cl- system (3-chlorotyrosine by GC-MS); format: biochemical; details: for 3-Chlorotyrosine/L-Tyrosine: Complete system (LDL 512 μg protein/ml, MPO 40 nM, H2O2 100 μM, Cl- 100 mM) plus additive at printed concentration, 1 h, 37° C., complete system alone 50, detection limit <0.1
T1 construct: light and heavy chains, homodimer) with H2O2, chloride and human LDL as substrate
T1 sequence (P05164 49-745): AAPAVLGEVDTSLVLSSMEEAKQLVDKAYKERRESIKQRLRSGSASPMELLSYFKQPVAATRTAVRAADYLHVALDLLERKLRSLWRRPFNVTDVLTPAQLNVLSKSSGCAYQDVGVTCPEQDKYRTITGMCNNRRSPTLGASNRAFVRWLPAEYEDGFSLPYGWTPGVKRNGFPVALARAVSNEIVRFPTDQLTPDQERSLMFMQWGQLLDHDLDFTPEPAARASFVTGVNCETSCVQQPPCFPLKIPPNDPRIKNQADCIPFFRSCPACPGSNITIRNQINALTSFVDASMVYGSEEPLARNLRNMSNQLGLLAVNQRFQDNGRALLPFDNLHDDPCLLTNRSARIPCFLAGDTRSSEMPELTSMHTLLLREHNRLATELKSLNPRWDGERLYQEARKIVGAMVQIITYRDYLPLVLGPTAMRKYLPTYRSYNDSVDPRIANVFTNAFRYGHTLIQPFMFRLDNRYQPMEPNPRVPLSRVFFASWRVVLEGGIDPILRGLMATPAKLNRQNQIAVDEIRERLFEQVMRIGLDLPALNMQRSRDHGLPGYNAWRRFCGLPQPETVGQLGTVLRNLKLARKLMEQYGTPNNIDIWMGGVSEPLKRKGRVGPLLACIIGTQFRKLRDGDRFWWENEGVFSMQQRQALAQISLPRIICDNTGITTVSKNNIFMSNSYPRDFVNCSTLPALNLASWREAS
Method: as §1
Following the addition of 10 pmol 3-[^13 C6 ]chlorotyrosine and 100 nmol L-[^13 C6 ]tyrosine, delipidated and dialyzed protein (~1-4 mg) suspended in Buffer B was dried under vacuum in a glass reaction vial. Each vial then received 0.5 ml HBr (6 N) containing 1% phenol. […]
Mass Spectrometric Analysis--n-Propyl, perheptafluorobutyl (HFB) and n-propyl, perpentafluoroproprionyl (PFP) derivatives of amino acids were prepared (38) and analyzed on a Hewlett Packard 5890 Gas Chromatograph interfaced with a Hewlett Packard 5988A Mass Spectrometer equipped with extended mass range. […]
Amino acids were quantified utilizing stable isotope dilution GC-MS analysis in the negative-ion chemical ionization mode (25,26). 3-Chlorotyrosine was monitored as its n-propyl-per-HFB derivative utilizing selected ion monitoring of the base peak at mass-to-charge ratio (m/z) 451 (M^.- -HFB), another prominent ion at m/z 629 (M^.- -HF), and their isotopically labeled internal standard ions at m/z 457 and 635, respectively.
L-Tyrosine was monitored as its n-propyl-per-HFB derivative using the base peak at m/z 417 (M^.- -HFB), another major ion at m/z 595 (M^.- -HF), and their labeled internal standard ions at m/z 423 and 601, respectively. […]

[2] = PMA-activated human neutrophils 1×10^6/ml, 60 min, 37° C., additive to complete neutrophil system

Molecule: O=S(=O)([O-])[O-].[Fe+2] [iron, FeSO4]
3-chlorotyrosine content of LDL exposed to oxidation system [1]: little change

Molecule: horseradish peroxidase
3-chlorotyrosine content of LDL exposed to oxidation system [1]: little change

Molecule: lactoperoxidase
3-chlorotyrosine content of LDL exposed to oxidation system [1]: little change

Molecule: superoxide dismutase: catalyzes the conversion of O2.- into H2O2
3-chlorotyrosine production in LDL incubated with activated phagocytes (Human neutrophils; [2]): further generation

Molecule: glucose
3-chlorotyrosine content of LDL exposed to oxidation system [1]: little change

Molecule: OCl [HOCl, hypochlorous acid]
3-chlorotyrosine content of LDL exposed to oxidation system [1]: resulted in 3-chlorotyrosine formation; also recorded: Significant levels
3-Chlorotyrosine/L-Tyrosine ([1]; LDL + HOCl (100 μM), no enzyme, 1 h): 68 umol/mol

Molecule: O=S(=O)([O-])[O-].[Cu+2] [copper, CuSO4]
3-chlorotyrosine content of LDL exposed to oxidation system [1]: little change

Molecule: [N-]=[N+]=[N-].[Na+] [NaN3]
3-chlorotyrosine production in LDL incubated with activated phagocytes (Human neutrophils; [2]): inhibited
3-Chlorotyrosine/L-Tyrosine (myeloperoxidase): 0 umol/mol

Molecule: C[C@H](CCC(=O)O)C[C@H](C)C[C@H](C)C(=O)/C=C(\O)[C@H](C)C[C@H](C)C/C=C/[C@@H](C)[C@@H](O)[C@@H](C)[C@@H](O)C[C@@H]1CC[C@@](C)([C@H]2CC[C@@](C)([C@@H](C)O)O2)O1 [ionomycin]
3-chlorotyrosine production in LDL incubated with activated phagocytes (Human neutrophils; ionomycin (1 μM) added together with superoxide dismutase (10 μg/ml)): further generation

Molecule: O=NOO [peroxynitrite]
3-chlorotyrosine content of LDL exposed to oxidation system [1]: little change

3-Chlorotyrosine/L-Tyrosine (myeloperoxidase): 0 umol/mol
Chlorination of apolipoprotein B100 (3-chlorotyrosine production) by myeloperoxidase-H2O2-Cl- system (myeloperoxidase; additive to complete system, result in words): blocked
B1: Catalase: a peroxide scavenger (protein, UniProt P00432 2-527, looked up)
Catalase: ADNRDPASDQMKHWKEQRAAQKPDVLTTGGGNPVGDKLNSLTVGPRGPLLVQDVVFTDEMAHFDRERIPERVVHAKGAGAFGYFEVTHDITRYSKAKVFEHIGKRTPIAVRFSTVAGESGSADTVRDPRGFAVKFYTEDGNWDLVGNNTPIFFIRDALLFPSFIHSQKRNPQTHLKDPDMVWDFWSLRPESLHQVSFLFSDRGIPDGHRHMNGYGSHTFKLVNANGEAVYCKFHYKTDQGIKNLSVEDAARLAHEDPDYGLRDLFNAIATGNYPSWTLYIQVMTFSEAEIFPFNPFDLTKVWPHGDYPLIPVGKLVLNRNPVNYFAEVEQLAFDPSNMPPGIEPSPDKMLQGRLFAYPDTHRHRLGPNYLQIPVNCPYRARVANYQRDGPMCMMDNQGGAPNYYPNSFSAPEHQPSALEHRTHFSGDVQRFNSANDDNVTQVRTFYLKVLNEEQRKRLCENIAGHLKDAQLFIQKKAVKNFSDVHPEYGSRIQALLDKYNEEKPKNAVHTYVQHGSHLSAREKANL
3-chlorotyrosine production in LDL incubated with activated phagocytes (Human neutrophils; [2]): inhibited

— patent US6268220A, “Diagnostic method for atherosclerosis” (Washington University, priority 1996, dated 2001)
